The results in this text go back to patent publication US20170216219A1, “THERAPEUTIC NANOPARTICLES FOR ACCUMULATION IN THE BRAIN” (UNIVERSITY OF GEORGIA RESEARCH FOUNDATION, INC., priority 2014, published 2017).

Holding throughout (assay type): cell-based, Human
The test system of data set [1] is NSCs. Briefly: Antioxidative properties by Seahorse analyzer (OCR) in H2O2 treated NSCs. As to conditions: H2O2 10 μM, 1 μM with respect to CoQ10. From the text:
Oxidative stress induced by the production of ROS including free radicals and peroxides is one of the major mechanisms, which leads to neuronal destruction and is closely related to apoptosis and necrosis in these cells during TBI. Mitochondria are well known to be a major source of ROS production. CoQ10 is endogenously synthesized in mammalian mitochondria, acts as both antioxidant and pro-oxidant, and is involved in shuttling electrons from complexes I or II and a number of other electron donors, including electron transfer factor, which moves electrons from fatty acid beta oxidation. CoQ10 is found in all cell and organelle membranes, where it can participate in redox shuttling. However, defects in CoQ10 biosynthesis can be found during TBI. […]
T-CoQ10-NPs, NT-CoQ10-NPs, and free CoQ10 were tested for their ability to reduce oxidative stress in NSCs. […] The cells were monitored for changes in oxygen consumption rate (OCR) with respect to time. A basal reading was acquired for 45 min and then H2O2(10 μM) was injected. The OCR was monitored for 90 min and T-CoQ10-NPs (1 μM with respect to CoQ10), NT-CoQ10-NPs (1 μM with respect to CoQ10), and free CoQ10 (1 μM) were injected. The OCR levels were then further measured for 4.5 h. As a control, cells were also monitored with no treatment or only treatment of H2O2(10 μM).

Data set [2] has as its system NSCs. Briefly: Cytotoxicity by MTT assay against NSCs. To be noted: concentrations used in the cytokine studies. As for the experimental part: (§1) Human induced pluripotent stem cell-derived neural stem cells (HIP™ hNSC BC1, GlobalStem®, Rockville, Md.) used for the in vitro portion of this study. NSCs were maintained on matrigel-coated tissue culture dishes in neural stem cell media composed of neural basal medium, 2% B-27 supplement, 1% non-essential amino acids, 2 mM L-alanine/L-glutamine, 1% penicillin/streptomycin, and 20 ng/mL bFGF. The media was changed every other day. When NSCs reached confluence (approximately every 4 to 5 days), cells were enzymatically passaged using Accutase and removed from the dish using a cell scrapper. Cells were split at a 1:4 ratio. To prepare NSCs for MTT and ROS Reduction assays, NSCs were plated in matrigel-coated 96-well dishes at a ratio of 40,000 cells per well in neural stem cell media.
The cytotoxic behavior of all the NPs was evaluated by using the MTT assay against NSCs. Cells (40,000 cells/well) were seeded on a 96-well plate in 100 μL of NSC basal complete medium and incubated for 24 h. The cells were treated with NPs at varying concentrations (with respect to prednisone and CoQ10) and incubated at 37° C. […] The medium was removed, the cells were lysed with 100 μL of DMSO, and the absorbance of the purple formazan was recorded at 550 nm using a Bio-Tek Synergy HT microplate reader. Each well was performed in triplicate and a background reading was recorded at 800 nm.

The next data set concerns LPS stimulated NSCs. As to the kind of experiment: Anti-inflammatory properties in LPS stimulated NSCs (cytokine ELISA). To be noted: LPS 100 ng/mL 36 h, 1 μM.
Excerpt: Immunosuppressant corticoid based rugs such as prednisone can exert biphasic effects on neuronal mitochondrial dynamics. A low level of prednisone and chronic high levels can attenuate various aspects of mitochondrial function. […] Inflammatory cytokines like TNF-α and IL-6 are closely linked to TBI and these cytokines have a negative effect on damaged tissue. Therefore limiting inflammatory cytokine activity is of major benefit in reducing TBI tissue damage. We used lipopolysaccharide (LPS) to stimulate TNF-α and IL-6 production in NSCs to understand the anti-inflammatory effects of prednisone-NPs and CoQ10-NPs in an in vitro model (FIG. 6C). […] The T and NT NPs containing prednisone reduced the levels of IL-6 in the LPS stimulated NSCs. The addition of T or NT-CoQ10-NPs to prednisone NPs increased the efficiency of IL-6 reduction. […] IL-10 is primarily an anti-inflammatory cytokine with potent inhibitory effects on several pro-inflammatory mediators. […] IL-12 has immune-inflammatory responses in the brain; however the consequences of local production of IL-12 on spontaneous immune responses are unknown. […] The exact mechanism why only mitochondria targeted therapy produces IL-12 from the NSCs warrants further investigation.
as §1, with “To prepare NSCs for MTT and ROS Reduction assays, NSCs were plated in matrigel-coated 96-well dishes at a ratio of 40,000 cells per well in neural stem cell media.” left out
NSCs were plated on each well of a 12-well plate at a density of […] per well and allowed to grow overnight (NSC basal media in 200 μL). […] The absorbance was recorded at 450 nm using a BioTek Synergy HT well plate reader.
(ELISA stands for enzyme-linked immunosorbent assay.)

On to `COC1=C(OC)C(=O)C(C/C=C(\C)CC/C=C(\C)CC/C=C(\C)CC/C=C(\C)CC/C=C(\C)CC/C=C(\C)CC/C=C(\C)CC/C=C(\C)CC/C=C(\C)CCC=C(C)C)=C(C)C1=O` [CoQ10, coenzyme Q10], for which the “effect on H2O2 mediated oxidative stress (OCR)” value with NSCs [1] is “less efficiency in oxidative stress reduction”. Further, the “cytotoxic effects (MTT)” value in the data set with NSCs [2] is on record as “did not show any cytotoxic effects”. The IL-10 entry with LPS stimulated NSCs was “elevated”.

Take `C[C@]12C=CC(=O)C=C1CC[C@@H]1[C@@H]2C(=O)C[C@@]2(C)[C@H]1CC[C@]2(O)C(=O)CO` [prednisone]: in the data set with NSCs [2], the “cytotoxic effects (MTT)” value is listed as “did not show any cytotoxic effects”. Further, in the data set on LPS stimulated NSCs, the IL-10 result is “elevated” and the “TNF-α secretion induced by LPS” value is on record as “significantly reduced”.
